Columns and labels:
Heart [1] = assay: Biodistribution in mouse S180 cells xenografted Kunming mouse heart at 370 kBq/0.1 mL, iv after 120 mins by gamma counting; type: ADME, organism-based, CCRF S-180; conditions: in vivo, 2 h
Nucleic Acid [2] = assay: Ratio of drug level in tumor to muscle in mouse S180 cells xenografted Kunming mouse at 370 kBq/0.1 mL, iv after 30 mins by gamma counting; type: ADME, organism-based, CCRF S-180; conditions: in vivo, 0.5 h
Blood [3] = assay: Biodistribution in mouse S180 cells xenografted Kunming mouse blood at 370 kBq/0.1 mL, iv after 120 mins by gamma counting; type: ADME, organism-based, CCRF S-180; conditions: in vivo, 2 h
Lung [4] = assay: Biodistribution in mouse S180 cells xenografted Kunming mouse lung at 370 kBq/0.1 mL, iv after 60 mins by gamma counting; type: ADME, organism-based, CCRF S-180; conditions: in vivo, 1 h
Mus musculus [5] = assay: Biodistribution in mouse S180 cells xenografted Kunming mouse tumor at 370 kBq/0.1 mL, iv after 60 mins by gamma counting; type: ADME, organism-based, Neoplasm, CCRF S-180; conditions: in vivo, 1 h
Blood [6] = assay: Biodistribution in mouse S180 cells xenografted Kunming mouse blood at 370 kBq/0.1 mL, iv after 5 mins by gamma counting; type: ADME, organism-based, CCRF S-180; conditions: in vivo
Spleen [7] = assay: Biodistribution in mouse S180 cells xenografted Kunming mouse spleen at 370 kBq/0.1 mL, iv after 15 mins by gamma counting; type: ADME, organism-based, CCRF S-180; conditions: in vivo, 0.25 h
Spleen [8] = assay: Biodistribution in mouse S180 cells xenografted Kunming mouse spleen at 370 kBq/0.1 mL, iv after 5 mins by gamma counting; type: ADME, organism-based, CCRF S-180; conditions: in vivo
Nucleic Acid [9] = assay: Ratio of drug level in tumor to muscle in mouse S180 cells xenografted Kunming mouse at 370 kBq/0.1 mL, iv after 5 mins by gamma counting; type: ADME, organism-based, CCRF S-180; conditions: in vivo
Brain [10] = assay: Biodistribution in mouse S180 cells xenografted Kunming mouse brain at 370 kBq/0.1 mL, iv after 5 mins by gamma counting; type: ADME, organism-based, CCRF S-180; conditions: in vivo
Nucleic Acid [11] = assay: Ratio of drug level in tumor to brain in mouse S180 cells xenografted Kunming mouse at 370 kBq/0.1 mL, iv after 5 mins by gamma counting; type: ADME, organism-based, CCRF S-180; conditions: in vivo
[12] = Partition coefficient, log P of the compound; type: physicochemical; conditions: octanol/water
Lung [13] = assay: Biodistribution in mouse S180 cells xenografted Kunming mouse lung at 370 kBq/0.1 mL, iv after 15 mins by gamma counting; type: ADME, organism-based, CCRF S-180; conditions: in vivo, 0.25 h
Liver [14] = assay: Biodistribution in mouse S180 cells xenografted Kunming mouse liver at 370 kBq/0.1 mL, iv after 30 mins by gamma counting; type: ADME, organism-based, CCRF S-180; conditions: in vivo, 0.5 h
Muscle tissue [15] = assay: Biodistribution in mouse S180 cells xenografted Kunming mouse muscle at 370 kBq/0.1 mL, iv after 60 mins by gamma counting; type: ADME, organism-based, CCRF S-180; conditions: in vivo, 1 h
Mus musculus [16] = assay: Biodistribution in mouse S180 cells xenografted Kunming mouse tumor at 370 kBq/0.1 mL, iv after 15 mins by gamma counting; type: ADME, organism-based, Neoplasm, CCRF S-180; conditions: in vivo, 0.25 h
Nucleic Acid [17] = assay: Ratio of drug level in tumor to blood in mouse S180 cells xenografted Kunming mouse at 370 kBq/0.1 mL, iv after 60 mins by gamma counting; type: ADME, organism-based, CCRF S-180; conditions: tumour, 1 h
Heart [18] = assay: Biodistribution in mouse S180 cells xenografted Kunming mouse heart at 370 kBq/0.1 mL, iv after 5 mins by gamma counting; type: ADME, organism-based, CCRF S-180; conditions: in vivo
Brain [19] = assay: Biodistribution in mouse S180 cells xenografted Kunming mouse brain at 370 kBq/0.1 mL, iv after 30 mins by gamma counting; type: ADME, organism-based, CCRF S-180; conditions: in vivo, 0.5 h
Spleen [20] = assay: Biodistribution in mouse S180 cells xenografted Kunming mouse spleen at 370 kBq/0.1 mL, iv after 30 mins by gamma counting; type: ADME, organism-based, CCRF S-180; conditions: in vivo, 0.5 h
Nucleic Acid [21] = assay: Ratio of drug level in tumor to brain in mouse S180 cells xenografted Kunming mouse at 370 kBq/0.1 mL, iv after 120 mins by gamma counting; type: ADME, organism-based, CCRF S-180; conditions: in vivo, 2 h
Muscle tissue [22] = assay: Biodistribution in mouse S180 cells xenografted Kunming mouse muscle at 370 kBq/0.1 mL, iv after 15 mins by gamma counting; type: ADME, organism-based, CCRF S-180; conditions: in vivo, 0.25 h
Nucleic Acid [23] = assay: Ratio of drug level in tumor to blood in mouse S180 cells xenografted Kunming mouse at 370 kBq/0.1 mL, iv after 120 mins by gamma counting; type: ADME, organism-based, CCRF S-180; conditions: tumour, 2 h
Lung [24] = assay: Biodistribution in mouse S180 cells xenografted Kunming mouse lung at 370 kBq/0.1 mL, iv after 120 mins by gamma counting; type: ADME, organism-based, CCRF S-180; conditions: in vivo, 2 h
Liver [25] = assay: Biodistribution in mouse S180 cells xenografted Kunming mouse liver at 370 kBq/0.1 mL, iv after 15 mins by gamma counting; type: ADME, organism-based, CCRF S-180; conditions: in vivo, 0.25 h
Blood [26] = assay: Biodistribution in mouse S180 cells xenografted Kunming mouse blood at 370 kBq/0.1 mL, iv after 30 mins by gamma counting; type: ADME, organism-based, CCRF S-180; conditions: in vivo, 0.5 h
Liver [27] = assay: Biodistribution in mouse S180 cells xenografted Kunming mouse liver at 370 kBq/0.1 mL, iv after 60 mins by gamma counting; type: ADME, organism-based, CCRF S-180; conditions: in vivo, 1 h
Spleen [28] = assay: Biodistribution in mouse S180 cells xenografted Kunming mouse spleen at 370 kBq/0.1 mL, iv after 60 mins by gamma counting; type: ADME, organism-based, CCRF S-180; conditions: in vivo, 1 h
Mus musculus [29] = assay: Biodistribution in mouse S180 cells xenografted Kunming mouse tumor at 370 kBq/0.1 mL, iv after 5 mins by gamma counting; type: ADME, organism-based, Neoplasm, CCRF S-180; conditions: in vivo
Nucleic Acid [30] = assay: Ratio of drug level in tumor to muscle in mouse S180 cells xenografted Kunming mouse at 370 kBq/0.1 mL, iv after 120 mins by gamma counting; type: ADME, organism-based, CCRF S-180; conditions: in vivo, 2 h
Muscle tissue [31] = assay: Biodistribution in mouse S180 cells xenografted Kunming mouse muscle at 370 kBq/0.1 mL, iv after 120 mins by gamma counting; type: ADME, organism-based, CCRF S-180; conditions: in vivo, 2 h
CCRF S-180 = assay: Cellular uptake in mouse S180 cells relative to [18F]FDG; type: ADME, cell-based
Plasma = assay: Metabolic stability in mouse plasma at 3.7 MBq after 1 to 2 hrs; type: ADME, cell-free
Kidney [32] = assay: Biodistribution in mouse S180 cells xenografted Kunming mouse kidney at 370 kBq/0.1 mL, iv after 120 mins by gamma counting; type: ADME, organism-based, CCRF S-180; conditions: in vivo, 2 h
Mus musculus [33] = assay: Biodistribution in mouse S180 cells xenografted Kunming mouse tumor at 370 kBq/0.1 mL, iv after 30 mins by gamma counting; type: ADME, organism-based, Neoplasm, CCRF S-180; conditions: in vivo, 0.5 h
Nucleic Acid [34] = assay: Ratio of drug level in tumor to brain in mouse S180 cells xenografted Kunming mouse at 370 kBq/0.1 mL, iv after 15 mins by gamma counting; type: ADME, organism-based, CCRF S-180; conditions: in vivo, 0.25 h
Kidney [35] = assay: Biodistribution in mouse S180 cells xenografted Kunming mouse kidney at 370 kBq/0.1 mL, iv after 15 mins by gamma counting; type: ADME, organism-based, CCRF S-180; conditions: in vivo, 0.25 h
Heart [36] = assay: Biodistribution in mouse S180 cells xenografted Kunming mouse heart at 370 kBq/0.1 mL, iv after 60 mins by gamma counting; type: ADME, organism-based, CCRF S-180; conditions: in vivo, 1 h
Nucleic Acid [37] = assay: Ratio of drug level in tumor to blood in mouse S180 cells xenografted Kunming mouse at 370 kBq/0.1 mL, iv after 5 mins by gamma counting; type: ADME, organism-based, CCRF S-180; conditions: tumour
Liver [38] = assay: Biodistribution in mouse S180 cells xenografted Kunming mouse liver at 370 kBq/0.1 mL, iv after 120 mins by gamma counting; type: ADME, organism-based, CCRF S-180; conditions: in vivo, 2 h
Mus musculus [39] = assay: Biodistribution in mouse S180 cells xenografted Kunming mouse tumor at 370 kBq/0.1 mL, iv after 120 mins by gamma counting; type: ADME, organism-based, Neoplasm, CCRF S-180; conditions: in vivo, 2 h
Nucleic Acid [40] = assay: Ratio of drug level in tumor to brain in mouse S180 cells xenografted Kunming mouse at 370 kBq/0.1 mL, iv after 60 mins by gamma counting; type: ADME, organism-based, CCRF S-180; conditions: in vivo, 1 h
Brain [41] = assay: Biodistribution in mouse S180 cells xenografted Kunming mouse brain at 370 kBq/0.1 mL, iv after 15 mins by gamma counting; type: ADME, organism-based, CCRF S-180; conditions: in vivo, 0.25 h

Structure (SMILES): Cc1cc(NCCNC(=O)c2ccc([N+](=O)[O-])cc2[18F])n2ncc(C#N)c2n1
- Drug uptake (Heart [1]): 0.12 % ID/g
- Ratio (Nucleic Acid [2]): 1.4
- Drug uptake (Blood [3]): 0.09 % ID/g
- Drug uptake (Lung [4]): 0.56 % ID/g
- Drug uptake (Mus musculus [5]): 0.74 % ID/g
- Drug uptake (Blood [6]): 5.23 % ID/g
- Drug uptake (Spleen [7]): 1.96 % ID/g
- Drug uptake (Spleen [8]): 4.54 % ID/g
- Ratio (Nucleic Acid [9]): 0.59
- Drug uptake (Brain [10]): 0.38 % ID/g
- Ratio (Nucleic Acid [11]): 5.87
- logP [12]: 0.69
- Drug uptake (Lung [13]): 2.6 % ID/g
- Drug uptake (Liver [14]): 7.3 % ID/g
- Drug uptake (Muscle tissue [15]): 0.47 % ID/g
- Drug uptake (Mus musculus [16]): 1.99 % ID/g
- Ratio (Nucleic Acid [17]): 1.66
- Drug uptake (Heart [18]): 5.77 % ID/g
- Drug uptake (Brain [19]): 0.12 % ID/g
- Drug uptake (Spleen [20]): 0.99 % ID/g
- Ratio (Nucleic Acid [21]): 5.13
- Drug uptake (Muscle tissue [22]): 2.07 % ID/g
- Ratio (Nucleic Acid [23]): 2.5
- Drug uptake (Lung [24]): 0.19 % ID/g
- Drug uptake (Liver [25]): 10.12 % ID/g
- Drug uptake (Blood [26]): 1.42 % ID/g
- Drug uptake (Liver [27]): 4.07 % ID/g
- Drug uptake (Spleen [28]): 0.53 % ID/g
- Drug uptake (Mus musculus [29]): 2.26 % ID/g
- Ratio (Nucleic Acid [30]): 0.77
- Drug uptake (Muscle tissue [31]): 0.28 % ID/g
- Drug uptake (CCRF S-180): < 7%
- Stability (Plasma): Stable
- Drug uptake (Kidney [32]): 0.74 % ID/g
- Drug uptake (Mus musculus [33]): 1.24 % ID/g
- Ratio (Nucleic Acid [34]): 12.35
- Drug uptake (Kidney [35]): 8.45 % ID/g
- Drug uptake (Heart [36]): 0.63 % ID/g
- Ratio (Nucleic Acid [37]): 0.43
- Drug uptake (Liver [38]): 2.05 % ID/g
- Drug uptake (Mus musculus [39]): 0.21 % ID/g
- Ratio (Nucleic Acid [40]): 8.69
- Drug uptake (Brain [41]): 0.16 % ID/g

From ChEMBL document CHEMBL1806489, “Synthesis and biological evaluation of novel F-18 labeled pyrazolo[1,5-a]pyrimidine derivatives: potential PET imaging agents for tumor detection” (Bioorg Med Chem Lett, 2011)
